Legend:
CRMM2 cells = experiment: Annexin-V-FITC / Propidium Iodide FACS, CRMM2; assay type: cell-based, Human
Description: Depending on the nature and intracellular localization of a PS, the light dose, and the cell type, PDT is known to provoke either necrosis, apoptosis, or autophagy. In order to investigate the death mechanism induced by green light-activated TLD1433 in CRMM1 and CRMM2 cells, the cells were stained with Annexin V and propidium iodide, and further analysed by fluorescence-activated cell sorting (FACS).
Figure 3 Green light irradiation of TLD1433 induces apoptosis and necrosis in CRMM1 and CRMM2 cells. (A) CRMM1 and (C) CRMM2 were stained with Annexin-V-FITC and Propidium Iodide. The percentages of live, early apoptotic, later apoptotic and necrotic cells in CRMM1 (B) and CRMM2 (D) were counted by FACS. Results are presented as means ± SD from three independent experiments. […]

[1] = test system: wild type zebrafish embryos; experiment: Maximum tolerated dose in wild type zebrafish embryos; assay type: in vivo; conditions: for Maximum Tolerated Dose (MTD): Wild Type Embryos, 4 treatments, 90 min green light 114 J.cm^−2; for concentration not toxic to embryos in the dark: wild type embryos
Description: Water administration (WA) of drugs by skin epithelial cell absorption and drinking is commonly used in zebrafish drug experiments. […] In addition, we also tested IV of TLD1433 by direct injection into the dorsal vein, as well behind the eye injections for RO administration. For IV and RO administration, the compound was injected four times into the embryos at 3, 4, 5 and 6dpf, followed by 60 min drug-to-light interval and the same kinetic and irradiation regime as for the WA administration (Figure 5A).
(A) Schedule of TLD1433 treatment in wild type zebrafish. […] (B) WA, (C) IV, (D) RO. (B–D) Images were made of irradiated (light) and non-irradiated (dark) embryos (n = 30) at 6dpf and the percentages of mortality, malformation and fish length were calculated (shown as means ± SD from three independent experiments). Representative images of embryos under dark and light conditions are shown.
At 2.5, 3.5, 4.5, 5.5 dpf, TLD1433 was added to the fish water and maintained for 12 h. […] At 3, 4, 5, 6 dpf, 1nL of TLD1433 was injected via the dorsal vein or the RO site and maintained for 1 h. […] The images of treated and wild type embryos at 6 dpf were taken using a DFC420C camera coupled to a Leica MZ16FA fluorescence microscope. In order to determine the MTD of tumour cell bearing zebrafish, TLD1433 was performed according to the same procedure, delivered by WA, IV and […] administration as described above for the wild type embryos.

## Cc1ccnc(-c2cc(C)ccn2)c1.Cc1ccnc(-c2cc(C)ccn2)c1.[Cl-].[Cl-].[Ru+2].c1csc(-c2ccc(-c3ccc(-c4nc5c6cccnc6c6ncccc6c5[nH]4)s3)s2)c1 [TLD1433]
CRMM2 cells; CRMM2, dark TLD1433 group
  cell fate by FACS (in words): most cells were found alive
CRMM2 cells; CRMM2, light-activated TLD1433 group
  cell fate by FACS (in words): about half of the cells were found dead
[1]; Intravenous 1 nL, 60 min DLI
  Maximum Tolerated Dose (MTD): 4.6 mM
[1]; Retro-orbital 1 nL, 60 min DLI
  Maximum Tolerated Dose (MTD): 4.6 mM
[1]; Water administration, 12 h DLI
  Maximum Tolerated Dose (MTD): 9.2e-06 mM
[1]; IV 1 nL
  concentration not toxic to embryos in the dark: 11500 µM
[1]; RO 1 nL
  concentration not toxic to embryos in the dark: 11500 µM
[1]; WA
  concentration not toxic to embryos in the dark: 0.023 µM

— paper PMC7139549, “TLD1433 Photosensitizer Inhibits Conjunctival Melanoma Cells in Zebrafish Ectopic and Orthotopic Tumour Models” (Cancers, 2020)
